According to patent publication US20090239846A1, “Novel Compounds” (Glaxo Group Limited, priority 2005, published 2009):
Counter-ions that a name gives are not always drawn. Like-named read-outs stand apart in the source and are kept apart here.

Test system: IL-8 production by human neutrophils
Experiment: TNF-stimulated IL-8 production from human neutrophils
Type: cell-based
Details: Neutrophil
[1] = bound, not more than 50% inhibition at 100 nM, read-out: IC50

Protocol: TNF-Stimulated IL-8 Production from Human Neutrophils The effect of test compounds on TNF-stimulated IL8 production by human neutrophils is measured as follows. Neutrophils are prepared from blood obtained from consenting donors, using standard methods. Blood is collected in heparinized syringes and layered over histopaque (30 ml/20 ml). Following centrifugation, the red cell pellet is resuspended in PBS and purified over a dextran gradient. Red blood cells are lysed with water for 40 sec, remaining granulocytes collected by centrifugation and resuspended at 1.5×10̂6 cells/ml. Cells are added (0.5-1 ml) to 48 well plates already containing compound at 1000×final concentration in neat DMSO or 10% DMSO in RPMI1640 with 10% FBS. TNF (final concentration 100 ng/ml) is used as the stimulus. Cells incubated for approximately 20 hrs at 37° C., 5% CO2. Levels of IL-8 in the cell free supernatant are determined by sandwich ELISA, and inhibition relative to a control with DMPO but no compound is calculated.

SMILES	IC50 [1] [nM]	other results
Cc1ccc(C(=O)NC(C)C)cc1-c1nc(N2CCC(N3CCOCC3)CC2)nc2c1CNC(=O)N2c1c(F)cccc1F [Example 71, 3-{8-(2,6-difluorophenyl)-2-[4-(4-morpholinyl)-1-piperidinyl]-7-oxo-5,6,7,8-tetrahydropyrimido[4,5-d]pyrimidin-4-yl}-4-methyl-N-(1-methylethyl)benzamide]	–	IC50 (bound, screened at a different top concentration, read-out: IC50): > 1 nM
Cc1ccc(C(=O)NC(C)C)cc1-c1nc(NCCCNC(C)(C)C)nc2c1CNC(=O)N2c1c(F)cccc1F [Example 50, 3-[8-(2,6-difluorophenyl)-2-({3-[(1,1-dimethylethyl)amino]propyl}amino)-7-oxo-5,6,7,8-tetrahydropyrimido[4,5-d]pyrimidin-4-yl]-4-methyl-N-(1-methylethyl)benzamide]	> 100	–
Cc1c(F)cc(C(=O)N(C)C)cc1-c1nc(NCCN(C)C)nc2c1CNC(=O)N2c1c(F)cccc1F [Example 113, 3-(8-(2,6-difluorophenyl)-2-{[2-(dimethylamino)ethyl]amino}-7-oxo-5,6,7,8-tetrahydropyrimido[4,5-d]pyrimidin-4-yl)-5-fluoro-N,N,4-trimethylbenzamide]	> 100	–
CN(C)CCNc1nc(-c2cccc(C(=O)N(C)C)c2)c2c(n1)N(c1c(F)cccc1F)C(=O)NC2 [Example 90, 3-(8-(2,6-difluorophenyl)-2-{[2-(dimethylamino)ethyl]amino}-7-oxo-5,6,7,8-tetrahydropyrimido[4,5-d]pyrimidin-4-yl)-N,N-dimethylbenzamide]	> 100	–
CCN(CC)CCCNc1nc(-c2cc(C(=O)O)ccc2C)c2c(n1)N(c1c(F)cccc1F)C(=O)NC2 [228(b), 3-[2-{[3-(diethylamino)propyl]amino}-8-(2,6-difluorophenyl)-7-oxo-5,6,7,8-tetrahydropyrimido[4,5-d]pyrimidin-4-yl]-4-methylbenzoic acid]	> 100	–
Cc1ccc(C(=O)NC(C)C)cc1-c1nc(NCCCNC(C)C)nc2c1CNC(=O)N2c1c(F)cccc1F [Example 49, 3-[8-(2,6-difluorophenyl)-2-({3-[(1-methylethyl)amino]propyl}amino)-7-oxo-5,6,7,8-tetrahydropyrimido[4,5-d]pyrimidin-4-yl]-4-methyl-N-(1-methylethyl)benzamide]	> 100	–
CNC(=O)c1ccc(-c2nc(NCCN(C)C)nc3c2CNC(=O)N3c2c(F)cccc2F)c(C)c1 [Example 109, 4-(8-(2,6-difluorophenyl)-2-{[2-(dimethylamino)ethyl]amino}-7-oxo-5,6,7,8-tetrahydropyrimido[4,5-d]pyrimidin-4-yl)-N,3-dimethylbenzamide trifluoroacetate]	> 100	–
CCCNC(=O)c1ccc(C)c(-c2nc(NCCCNCC)nc3c2CNC(=O)N3c2c(F)cccc2F)c1 [230(b), 3-(8-(2,6-difluorophenyl)-2-{[3-(ethylamino)propyl]amino}-7-oxo-5,6,7,8-tetrahydropyrimido[4,5-d]pyrimidin-4-yl)-4-methyl-N-propylbenzamide trifluoroacetate]	> 100	–
Cc1c(F)cc(C(=O)Nc2ccc(F)cc2)cc1-c1nc(NCCN(C)C)nc2c1CNC(=O)N2c1c(F)cccc1F [Example 115, 3-(8-(2,6-difluorophenyl)-2-{[2-(dimethylamino)ethyl]amino}-7-oxo-5,6,7,8-tetrahydropyrimido[4,5-d]pyrimidin-4-yl)-5-fluoro-N-(4-fluorophenyl)-4-methylbenzamide]	–	IC50 (ends given as 'less than' / 'greater than', read-out: IC50, broad range of data upon multiple runs): 1 to 100 nM
CCCNC(=O)c1ccc(C)c(-c2nc(NCCNC(C)C)nc3c2CNC(=O)N3c2c(F)cccc2F)c1 [Example 62, 3-[8-(2,6-difluorophenyl)-2-({2-[(1-methylethyl)amino]ethyl}amino)-7-oxo-5,6,7,8-tetrahydropyrimido[4,5-d]pyrimidin-4-yl]-4-methyl-N-propylbenzamide]	> 100	–
CCc1ccc(C(N)=O)cc1-c1nc(NCCN(C)C)nc2c1CNC(=O)N2c1c(F)cccc1F [Example 146, 3-(8-(2,6-difluorophenyl)-2-{[2-(dimethylamino)ethyl]amino}-7-oxo-5,6,7,8-tetrahydropyrimido[4,5-d]pyrimidin-4-yl)-4-ethylbenzamide]	> 100	–
CCCNC(=O)c1ccc(C)c(-c2nc(NCCCNC(C)(C)C)nc3c2CNC(=O)N3c2c(F)cccc2F)c1 [Example 65, 3-[8-(2,6-difluorophenyl)-2-({3-[(1,1-dimethylethyl)amino]propyl}amino)-7-oxo-5,6,7,8-tetrahydropyrimido[4,5-d]pyrimidin-4-yl]-4-methyl-N-propylbenzamide]	> 100	–
Cc1ccc(C(=O)NCC(C)(C)C)cc1-c1nc(NCCN(C)C)nc2c1CNC(=O)N2c1c(F)cccc1F [Example 125, 3-(8-(2,6-difluorophenyl)-2-{[2-(dimethylamino)ethyl]amino}-7-oxo-5,6,7,8-tetrahydropyrimido[4,5-d]pyrimidin-4-yl)-N-(2,2-dimethylpropyl)-4-methylbenzamide]	> 100	–
